According to patent US6958162B2, “Herbal composition for treating allergic disorders and method for making the same” (Industrial Technology Research Institute, priority 2003, dated 2005):

What was measured:
[1] = system: IL-4 released from EL-4 cells; assay: Measurement of IL-4 released from stimulated EL-4 cells (ELISA); assay type: cell-based, mouse; conditions: FIG. 3b, 3c
Method: During the day of experiment, the herbal drug was diluted in the cell culture medium to the end point (0.5 μg/ml, 5 μg/ml, or as appropriate). The ability of each herbal composition and its mixtures to affect the production of IL-4, TNF-alpha, and cLT was measured.
The mouse thymoma cell lines, EL-4 were incubated with each composition or mixture for 2 hours before it was stimulated by 100 ng/ml of A23187 and PMA. Samples of tissue culture medium were collected at the end of 24 hours incubation and stored at −70 degrees C. prior to assay.
Cytokine measurements were carried out using the commercially available ELISA assay kit (R&D Systems, Minneapolis, Minn.) in accordance with the supplier's protocols. In brief, 100 μl of the assay buffer supplied was added to each of the wells of a micro-titer plate containing pre-bound anti-cytokine antibody, followed by 100 μl of a standard or sample solution, diluted appropriately for the concentration range measured. All incubations were carried out at 37 degrees C. After two hours incubation, the plates were washed four times with a wash buffer, and the second antibody, Detection Antibody, was added with 1:200 in Reagent Diluent to each well. The plates were sealed and incubated for 2 hours. […] Optical sensitivity was determined at 450 nm using a Molecular Devices of micro-titer plate reader.

pulmonary function = assay: Pulmonary function determination (barometric plethysmograph, methacholine) in Der p 2 allergic mice; assay type: in vivo, Balb/c mice; conditions: DEX 1 μg/mouse/day, TCM 20 mg/mouse/day; result in words
Method: Male Balb/c mice were obtained from the National Laboratory Breeding Research Center in Taiwan and were raised in a specific pathogen-free environment. These mice used were between 6 and 8 weeks of age. Groups of six mice were caged separately according to their treatments. Recombinant Dermatophoides pteronyssinus group 2 (Der p 2) was prepared from Dr. Tsai's lab and test drugs, Traditional Chinese Medicine A (TCM-A, or 1217A in FIGS. 7, 8, 9, and 10) and Traditional Chinese Medicine B (TCM-B, or 1217B in FIGS. 7, 8, 9, and 10) were prepared from the Biomedical Engineering Center Industrial Technology Research Institute, Hsinchu, Taiwan. […]
Each mouse was placed inside a barometric plethysmograph (Buxco Electronics, Troy, N.Y.). […] The pressure signal was amplified, digitized via an A/D convert card, and sent to a computer with a BioSystem XA program (Buxco Electronics, Troy, N.Y.), which sampled and calculated desired respiratory parameters. […]
An aerosol was generated by placing a 5 ml saline or methacholine (1.56 to 50.00 mg/ml) solution in the cup of an ultrasonic nebulizer (DeVilbiss, Somerset, Pa.) and it was delivered via a connecting tube and a three-way connector to the animal chamber of the plethysmograph. […] At first, each mouse inhaled the saline aerosol for 3 mins and then the respiratory parameters were measured for 3 mins. […]

[2] = system: inflammatory cells in the BAL fluids; assay: Der p 2 induced allergic airway inflammation in mice: cell counts in BAL fluid; assay type: in vivo, Balb/c mice; conditions: DEX 1 μg/mouse/day, mean ± SEM
Method: Male Balb/c mice were obtained from the National Laboratory Breeding Research Center in Taiwan and were raised in a specific pathogen-free environment. These mice used were between 6 and 8 weeks of age. Groups of six mice were caged separately according to their treatments. Recombinant Dermatophoides pteronyssinus group 2 (Der p 2) was prepared from Dr. Tsai's lab and test drugs, Traditional Chinese Medicine A (TCM-A, or 1217A in FIGS. 7, 8, 9, and 10) and Traditional Chinese Medicine B (TCM-B, or 1217B in FIGS. 7, 8, 9, and 10) were prepared from the Biomedical Engineering Center Industrial Technology Research Institute, Hsinchu, Taiwan.
Mice were immunized by intraperitoneal (i.p.) injection of 1 μg/0.1 ml Der p 2 emulsified in 4 μg/0.062 ml aluminum hydroxide Al(OH)3 (Whitehall Lab Ltd, Punchbowel, Australia) on day 0 and day 7. After immunization, mice were fed with TCM for 3 weeks. Mice of different groups were fed with Dexamethasome (1 μg/mouse/day), TCM-A (20 mg/mouse/day), TCM-B (20 mg/mouse/day) or normal saline 500 μl/mouse/day. On days 28 and 35, mice were lightly anesthetized with an i.p. injection of 60 mg/kg of sodium pentobarbital (Sigma Chemical Co., St. Louis, Mo., USA) and intratracheally (i.t.) inoculated with 1 μg/50 μl of Der p 2. Twenty-four hours after the second i.t. inoculation, mice were sacrificed after pulmonary function measurement.
After pulmonary function measurement, bronchoalveolar lavage (BAL) was performed with the following procedure. Two separate injections of 1 ml sterile endotoxin-free saline were given into the lung via the trachea of each mouse. Approximately 1.8 ml of the bronchoalveolar lavage (BAL) fluid was recovered constantly. The BAL fluids were aspirated and stored at −70° C. until assay. After total leukocyte counting, a cytospin preparation of […] BAL fluid was stained with Liu stain (Tonyar Diagnostic Inc, Taipei County, Taiwan) and differential counts were performed on 200 cells. […] Blood samples were obtained via the orbital sinus and sera were collected and stored at −70° C. until assay.

SMILES	effect on IL-4 released from EL-4 cells (excipients and powder with excipients) [1]	pulmonary function of allergic animals (methacholine from low dose to high dose) (pulmonary function)	Differential Counts, Eos ([2]; BAL fluid, TCM 20 mg/mouse/day)	Differential Counts, Lym ([2]; BAL fluid, TCM 20 mg/mouse/day)	Differential Counts, Macro ([2]; BAL fluid, TCM 20 mg/mouse/day)	Differential Counts, Neu ([2]; BAL fluid, TCM 20 mg/mouse/day)	Total cell NO in BAL fluid ([2]; fed 3 weeks, TCM-A or TCM-B 20 mg/mouse/day)
O=P([O-])([O-])[O-].O=P([O-])([O-])[O-].[Ca+2].[Ca+2].[Ca+2] [Ca3(PO4)2]	do not have any effect						
C[C@@H]1C[C@H]2[C@@H]3CCC4=CC(=O)C=C[C@]4(C)[C@@]3(F)[C@@H](O)C[C@]2(C)[C@@]1(O)C(=O)CO [DEX, Dexamethasone]		can improve the pulmonary function	3.2 ± 0.4 ×10^4/ml	9.4 ± 1.5 ×10^4/ml	29.2 ± 4.4 ×10^4/ml	6.6 ± 1.0 ×10^4/ml	46.4 ± 2.2 ×10^4/ml
